Read-outs that look alike come from different tables or passages of the source.
Legend:
[1] = test system: gastrointestinal iron absorption; settings: cited from earlier work
[2] = daily administration, 50 mg of elemental iron; based on generally accepted iron absorption rates
[3] = intravenous administration of the promoter
[4] = oral administration of the promoter

Row | Compound | effect on gastrointestinal iron absorption [1, 3] | effect on gastrointestinal iron absorption [1, 4] | time required to supply 450 mg of iron for RBC regeneration and 300 mg of iron to replenish iron stores [2]
1 | O=C(O)CCC(=O)O [Succinic acid, succinic acid] | enhance gastrointestinal iron absorption | enhance gastrointestinal iron absorption | 
2 | ferrous sulfate |  |  | approximately 9 months
3 | O=C1O[C@H]([C@@H](O)CO)C(O)=C1O [Ascorbic acid, ascorbic acid] | not increased | enhance gastrointestinal iron absorption | 
